These results are taken from ChEMBL document CHEMBL1129800, “Cycloalkylpyranones and cycloalkyldihydropyrones as HIV protease inhibitors: exploring the impact of ring size on structure-activity relationships” (J Med Chem, 1996).

The term inhibition denotes the percentage by which the read-out fell short of the control. Usually Ki stands for the dissociation constant of the complex between target and ligand, obtained from inhibition or displacement. Low readings indicate higher affinity, high ones lower affinity.

Test [1] relates to H9. Briefly: Compound at 3 uM was tested for antiviral activity against HIV-1-infected H-9 cells. Format: functional. The following applies: Homo sapiens.
The target of test [2] is Human immunodeficiency virus type 1 protease (Human immunodeficiency virus 1, UniProt Q72874). Briefly: Binding affinity towards HIV protease was determined.
Test [3] concerns H9. Briefly: Effective dose for antiviral activity against HIV-1-infected H-9 cells. It counts as functional. The following applies: Homo sapiens, read-out: ED50 (the source's name).

The structures appear in SMILES notation.

Compound `CCC(C1=C(O)OC2CCCCC2C1=O)c1cccc(NS(=O)(=O)c2ccc(C#N)cc2)c1` (stereo unspecified) registered an inhibition at 3 µM in the test on H9 [1] below 10%. In test [2], this compound registered an inhibition constant (Ki) of 15 nM.
Take `CCC(c1ccccc1)c1c(O)c2c(oc1=O)CCCCCCC2` (stereo unspecified): the Ki in test [2] was above 2000 nM.
In turn, `CCC(C1=C(O)OC2CCCC2C1=O)c1ccccc1` (stereo unspecified) registered a Ki in test [2] above 2000 nM.
`CCC(C1=C(O)C2CCCCC2OC1=O)c1cccc(NS(=O)(=O)c2ccc(C#N)cn2)c1` (stereo unspecified): the EC50 in the test with H9 [3] worked out at 950 nM. Moreover, affinity in test [2] was put at a Ki of 0.05 nM.
`CCC(c1ccccc1)c1c(O)c2c(oc1=O)CCC2` (stereo unspecified) came in with a Ki in test [2] of 700 nM.
With `CC(C)(C)C(C1=C(O)OC2CCCCCCC2C1=O)c1cccc(NS(=O)(=O)c2ccc(C#N)cc2)c1` (stereo unspecified), the EC50 with H9 [3] is 2500 nM. In test [2], the inhibition constant (Ki) amounted to 0.2 nM.
`CCC(C1=C(O)OC2CCCCC2C1=O)c1ccccc1` (stereo unspecified) had a Ki in test [2] of 670 nM.
As for `CCC(c1cccc(NS(=O)(=O)c2ccc(C#N)cn2)c1)c1c(O)c2c(oc1=O)CCC2` (stereo unspecified), the EC50 in the test with H9 [3] is 8600 nM. Moreover, in test [2], the affinity corresponds to a Ki of 0.075 nM.
Take `CCC(C1=C(O)OC2CCCCCC2C1=O)c1ccccc1` (stereo unspecified): the Ki in test [2] is above 1200 nM.
`CCC(C1=C(O)OC2CCCCCCC2C1=O)c1ccccc1` (stereo unspecified) returned an inhibition constant (Ki) in test [2] of 1200 nM.
In test [2], `CCC(c1ccccc1)c1c(O)c2c(oc1=O)CCCC2` (stereo unspecified) had a Ki of 1100 nM.
Still for that read-out and setting: under `CCC(c1ccccc1)c1c(O)c2ccccc2oc1=O` (stereo unspecified) [PHENPROCOUMON] stands 800 nM.
